Experimental findings from patent US7279548B2, “Identification and isolation of novel polypeptides having WW domains and methods of using same” (Cytogen Corporation, priority 1996, dated 2007) are described below.

“Also recorded” adds a separate entry of the source. No end group written: not given here. *: point of attachment. Biotin = O=C1N[C@H]2[C@H](CS[C@H]2CCCCC(=O)*)N1

This test deals with T1, WWP3 WW domain expressed as GST fusion protein (Homo sapiens, UniProt Q96QZ7).
T1 construct: made in house
Put plainly: ELISA based cross affinity mapping, WWP3 WW domain. It is filed as binding. The note with it: biotinylated peptide-streptavidin/alkaline phosphatase complex. The method, then: The 16 day mouse embryo cDNA expression library was diluted 1:1000 in SM solution (100 mM NaCl, 8 mM MgSOv4, 50 mM Tris HCl pH 7.5, 0.01% gelatin). To a sterile test tube, 2 μl of diluted mouse embryo library, 100 μl of 10 mM CaCl2, 100 μl of 10 mM MgCl2 and 100 μl of BL21(DE3)pLysE bacterial cells (grown overnight) were added and incubated for 30 minutes at 37° C. The contents of the tube were mixed with 3 ml of 0.6% top agarose, containing […] chloramphenicol, and poured onto a 2xYT plate (90 mm diameter). For a large primary screen, 10–20 plates were prepared with 3×10^4 pfu per plate. After 6 hours incubation at 37° C., a nitrocellulose filter soaked in 10 mM isopropyl-β-D-thiogalactopyranoside (IPTG) was overlaid on each plate and incubated 3–6 hours at 37° C. Before the filters were removed from the plates, they were marked asymmetrically with India ink in a 18 gauge syringe needle. The plates were stored at 4° C. until ready for the secondary screen. The filters were washed with PBS (137 mM NaCl, 2.7 mM KCl, 4.3 mM Na2HPO4, 1.4 mM KH2PO4)-0.05% Triton X-100 three times at room temperature, 15 minutes each wash, and then placed in a plastic bag containing non-specific blocking solution (PBS-2% BSA) for one hour. In the meantime, 1 ml of 1 mM biotinylated peptide in PBS-0.1% Tween 20 was added to 20 ml of 1 mg/ml streptavidin-alkaline phosphatase (SA-AP) in PBS-0.1% Tween 20 and incubated at 4° C. for 30 minutes. As an alternative method of forming multivalent complexes, 50 pmol biotinylated peptide could have been incubated with 2 μg SA-AP (for a biotin:biotin-binding site ratio of 1:1). Excess biotin-binding sites would then be blocked by addition of 500 pmol biotin. As a further alternative, 31.2 μl of 1 mg/ml SA-AP could have been incubated with 15 μl of 0.1 mM biotinylated peptide for 30 min at 4° C. Ten μl of 0.1 mM biotin would then be added, and the solution incubated for an additional 15 min.
To determine the ligand preferences of the novel WW omain-containing clones described in Sections 6.1 and 6.1.1, as well as addressing the issue of whether peptides containing PPPPY (SEQ ID NO:3)-like motifs derived from a variety of proteins could also serve as recognition units and bind to these clones, a cross affinity mapping experiment was performed (FIGS. 15A–D). The peptides shown in FIGS. 15A–D were synthesized, biotinylated, complexed with streptavidin-alkaline phosphatase, and tested in an ELISA based assay for their ability to bind to the twelve individual novel WW domains of WWP1, WWP2, WWP3 and WWP4 which were expressed as GST fusion proteins. The ELISA based cross-affinity experiments were performed essentially as described by Sparks et al. (1996, Proc. Natl. Acad. Sci. 93:1540–1544) with the following modifications. Briefly, microtiter wells were coated with 1–5 μg of fusion protein in 100 mM NaHCO3, blocked with SuperBlock TBS (Pierce) and washed four times with PBS, 0.05% Tween 20. Specific peptide-streptavidin/alkaline phosphatase complexes were added as above and unbound complexes washed five times with PBS, 0.05% Tween 20. Following addition of PNP substrate (p-nitrophenyl phosphate, Kirkegard & Perry Labs), peptide binding was quantitated after 30 min. at O.D. 405 nm. Relative binding measurements from three independent determinations were assigned to a scale as follows: O.D. units 0–0.5=(−), 0.5–1.0=(+), 1.0–2.0=(++), 2.0–3.0=(+++), >3.0=(++++). Peptide binding to human Fyn and Lyn SH3 and SH2 domains was assessed by a filter binding assay (see Section 6.1 and Sparks et al., 1996, Proc. Natl. Acad. Sci 93:1540–1544). […]
(In general: An ELISA detects its analyte on a solid surface through an enzyme-linked reagent.)

T1 sequence (Q96QZ7 300-337 limits assumed): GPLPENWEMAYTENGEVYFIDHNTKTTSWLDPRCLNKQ

For the substance Biotin-SGSGPGTPPPPYTVGPGY [WBP-1], the “binding to WWP3 WW domain” value is listed as “not”. Turning to Biotin-SGSGPGTPYPPPPEFY [WBP-2B], the “binding to WWP3 WW domain” value is given as “not”.

On to Biotin-SGSGYVQPPPPPYPGPM [WBP-2A], for which the “binding to WWP3 WW domain” value is reported as “specifically binds; also recorded: bound”.
